Test results: PubChem BioAssay (NCI)
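Cultured in 96-well plates, cells were exposed to test compound for 48 hours across five concentrations. At the GI50, growth is halved. TGI: concentration producing complete growth inhibition.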

Legend:
Assay in all cases: NCI anticancer screen, dose series, 48 h
786-0 renal = system: 786-0 renal
A498 renal = system: A498 renal
A549 NSCLC = system: A549 NSCLC
ACHN renal = system: ACHN renal
BT-549 breast = system: BT-549 breast
CAKI-1 renal = system: CAKI-1 renal
CCRF-CEM leukemia = system: CCRF-CEM leukemia
COLO 205 colon = system: COLO 205 colon
DU-145 prostate = system: DU-145 prostate
EKVX NSCLC = system: EKVX NSCLC
HCC-2998 colon = system: HCC-2998 colon
HCT-116 colon = system: HCT-116 colon
HCT-15 colon = system: HCT-15 colon
HL-60(TB) leukemia = system: HL-60(TB) leukemia
HOP-62 NSCLC = system: HOP-62 NSCLC
HOP-92 NSCLC = system: HOP-92 NSCLC
HS 578T breast = system: HS 578T breast
HT29 colon = system: HT29 colon
IGROV1 ovarian = system: IGROV1 ovarian
KM12 colon = system: KM12 colon
LOX IMVI melanoma = system: LOX IMVI melanoma
M14 melanoma = system: M14 melanoma
MALME-3M melanoma = system: MALME-3M melanoma
MCF7 breast = system: MCF7 breast
MDA-MB-231 breast = system: MDA-MB-231 breast
MDA-MB-435 = system: MDA-MB-435
MOLT-4 leukemia = system: MOLT-4 leukemia
NCI-H226 lung = system: NCI-H226 lung
NCI-H23 lung = system: NCI-H23 lung
NCI-H460 lung = system: NCI-H460 lung
NCI-H522 lung = system: NCI-H522 lung
NCI/ADR-RES ovarian = system: NCI/ADR-RES ovarian
OVCAR-4 ovarian = system: OVCAR-4 ovarian
OVCAR-5 ovarian = system: OVCAR-5 ovarian
OVCAR-8 ovarian = system: OVCAR-8 ovarian
PC-3 prostate = system: PC-3 prostate
RPMI-8226 leukemia = system: RPMI-8226 leukemia
RXF 393 renal = system: RXF 393 renal
SF-268 CNS = system: SF-268 CNS
SF-295 CNS = system: SF-295 CNS
SF-539 CNS = system: SF-539 CNS
SK-MEL-2 melanoma = system: SK-MEL-2 melanoma
SK-MEL-28 melanoma = system: SK-MEL-28 melanoma
SK-MEL-5 melanoma = system: SK-MEL-5 melanoma
SK-OV-3 ovarian = system: SK-OV-3 ovarian
SN12C renal = system: SN12C renal
SNB-19 CNS = system: SNB-19 CNS
SNB-75 CNS = system: SNB-75 CNS
SR leukemia = system: SR leukemia
SW-620 colon = system: SW-620 colon
T-47D breast = system: T-47D breast
TK-10 renal = system: TK-10 renal
U251 CNS = system: U251 CNS
UACC-257 melanoma = system: UACC-257 melanoma
UACC-62 melanoma = system: UACC-62 melanoma
UO-31 renal = system: UO-31 renal

`CCCCCc1ccc(S(=O)(=O)Nc2cc(-c3csc(NC(=O)CN4CCN(C)CC4)n3)ccc2OC)cc1` gave a GI50 (786-0 renal) of 0.884 µM, a TGI (786-0 renal) of 1.64 µM and a GI50 (A498 renal) of 5.41 µM. For the same compound, the TGI (A498 renal) was 12.2 µM, the GI50 (A549 NSCLC) was 1.43 µM and the TGI (A549 NSCLC) was 5.48 µM. For the same compound, the GI50 (ACHN renal) was 0.957 µM, the TGI (ACHN renal) was 1.98 µM and the GI50 (BT-549 breast) was 2.52 µM. For the same compound, the TGI (BT-549 breast) was 11.2 µM, the GI50 (CAKI-1 renal) was 0.869 µM and the TGI (CAKI-1 renal) was 1.97 µM. It also gave a GI50 (CCRF-CEM leukemia) of 1.24 µM, a TGI (CCRF-CEM leukemia) of 3.92 µM and a GI50 (COLO 205 colon) of 0.821 µM. For the same compound, the TGI (COLO 205 colon) was 1.68 µM, the GI50 (DU-145 prostate) was 1.62 µM and the TGI (DU-145 prostate) was 4.96 µM. The GI50 (EKVX NSCLC) was 1.92 µM, the TGI (EKVX NSCLC) was 9.16 µM and the GI50 (HCC-2998 colon) was 0.986 µM. The TGI (HCC-2998 colon) was 1.97 µM, the GI50 (HCT-116 colon) was 0.876 µM and the TGI (HCT-116 colon) was 1.65 µM. The GI50 (HCT-15 colon) was 0.976 µM, the TGI (HCT-15 colon) was 2.09 µM and the GI50 (HL-60(TB) leukemia) was 1.07 µM. It also gave a TGI (HL-60(TB) leukemia) of 2.34 µM, a GI50 (HOP-62 NSCLC) of 0.915 µM and a TGI (HOP-62 NSCLC) of 1.86 µM. The GI50 (HOP-92 NSCLC) was 0.857 µM, the TGI (HOP-92 NSCLC) was 1.96 µM and the GI50 (HS 578T breast) was 0.919 µM. For the same compound, the TGI (HS 578T breast) was 2.19 µM, the GI50 (HT29 colon) was 0.871 µM and the TGI (HT29 colon) was 1.68 µM. For the same compound, the GI50 (IGROV1 ovarian) was 1.19 µM, the TGI (IGROV1 ovarian) was 3.51 µM and the GI50 (KM12 colon) was 1.21 µM. The TGI (KM12 colon) was 2.92 µM, the GI50 (LOX IMVI melanoma) was 0.866 µM and the TGI (LOX IMVI melanoma) was 1.63 µM. The GI50 (M14 melanoma) was 0.887 µM, the TGI (M14 melanoma) was 1.7 µM and the GI50 (MALME-3M melanoma) was 0.788 µM. It also gave a TGI (MALME-3M melanoma) of 1.52 µM, a GI50 (MCF7 breast) of 0.937 µM and a TGI (MCF7 breast) of 1.95 µM. The GI50 (MDA-MB-231 breast) was 0.992 µM, the TGI (MDA-MB-231 breast) was 2.34 µM and the GI50 (MDA-MB-435) was 0.878 µM. It also gave a TGI (MDA-MB-435) of 1.64 µM, a GI50 (MOLT-4 leukemia) of 1.49 µM and a TGI (MOLT-4 leukemia) of 4.54 µM. It also gave a GI50 (NCI-H226 lung) of 6.89 µM, a TGI (NCI-H226 lung) of 17.6 µM and a GI50 (NCI-H23 lung) of 1.84 µM. It also gave a TGI (NCI-H23 lung) of 7.12 µM, a GI50 (NCI-H460 lung) of 0.924 µM and a TGI (NCI-H460 lung) of 1.77 µM. The GI50 (NCI-H522 lung) was 0.889 µM, the TGI (NCI-H522 lung) was 1.7 µM and the GI50 (NCI/ADR-RES ovarian) was 2.37 µM. For the same compound, the TGI (NCI/ADR-RES ovarian) was 9.89 µM, the GI50 (OVCAR-4 ovarian) was 1.31 µM and the TGI (OVCAR-4 ovarian) was 4.1 µM. It also gave a GI50 (OVCAR-5 ovarian) of 1.54 µM, a TGI (OVCAR-5 ovarian) of 5.35 µM and a GI50 (OVCAR-8 ovarian) of 1.28 µM. The TGI (OVCAR-8 ovarian) was 3.65 µM, the GI50 (PC-3 prostate) was 1.8 µM and the TGI (PC-3 prostate) was 7.42 µM. It also gave a GI50 (RPMI-8226 leukemia) of 0.925 µM, a TGI (RPMI-8226 leukemia) of 2.16 µM and a GI50 (RXF 393 renal) of 0.717 µM. It also gave a TGI (RXF 393 renal) of 1.5 µM, a GI50 (SF-268 CNS) of 0.898 µM and a TGI (SF-268 CNS) of 1.92 µM. It also gave a GI50 (SF-295 CNS) of 0.993 µM, a TGI (SF-295 CNS) of 2.01 µM and a GI50 (SF-539 CNS) of 0.859 µM. It also gave a TGI (SF-539 CNS) of 1.61 µM, a GI50 (SK-MEL-2 melanoma) of 0.867 µM and a TGI (SK-MEL-2 melanoma) of 1.65 µM. The GI50 (SK-MEL-28 melanoma) was 0.873 µM, the TGI (SK-MEL-28 melanoma) was 1.62 µM and the GI50 (SK-MEL-5 melanoma) was 0.892 µM. The TGI (SK-MEL-5 melanoma) was 1.61 µM, the GI50 (SK-OV-3 ovarian) was 5.14 µM and the TGI (SK-OV-3 ovarian) was 13 µM. It also gave a GI50 (SN12C renal) of 1.14 µM, a TGI (SN12C renal) of 2.77 µM and a GI50 (SNB-19 CNS) of 1.26 µM. For the same compound, the TGI (SNB-19 CNS) was 3.74 µM, the GI50 (SNB-75 CNS) was 1.07 µM and the TGI (SNB-75 CNS) was 4.47 µM. It also gave a GI50 (SR leukemia) of 0.993 µM, a TGI (SR leukemia) of 2.62 µM and a GI50 (SW-620 colon) of 0.867 µM. For the same compound, the TGI (SW-620 colon) was 1.69 µM, the GI50 (T-47D breast) was 0.921 µM and the TGI (T-47D breast) was 2.06 µM. It also gave a GI50 (TK-10 renal) of 1.41 µM, a TGI (TK-10 renal) of 5.1 µM and a GI50 (U251 CNS) of 0.901 µM. The TGI (U251 CNS) was 1.91 µM, the GI50 (UACC-257 melanoma) was 0.85 µM and the TGI (UACC-257 melanoma) was 1.64 µM. For the same compound, the GI50 (UACC-62 melanoma) was 0.969 µM, the TGI (UACC-62 melanoma) was 1.98 µM and the GI50 (UO-31 renal) was 0.736 µM. The TGI (UO-31 renal) was 1.61 µM.
